Measured values from patent publication US20040018150A1, “Prodrugs of phosphonate nucleotide analogues and methods for selecting and making same” (priority 2003, published 2004).

Tests used:
[1] = Stability in human plasma; assay type: in vitro ADME
Procedure: (§1) The in vitro metabolism and stability of separated diastereomers were determined in PLCE, MT-2 extract and human plasma. A biological sample listed below, 80 μL, was transferred into a screw-capped centrifuge tube and incubated at 37° C. for 5 min. A solution containing 0.2 mg/mL of the test compound in a suitable buffer, 20 μL, was added to the biological sample and mixed. The reaction mixture, 20 μL, was immediately sampled and mixed with 60 μL of methanol containing 0.015 mg/mL of 2-hydroxymethylnaphthalene as an internal standard for HPLC analysis. The sample was taken as the time-zero sample. Then, at specific time points, the reaction mixture, 20 μL, was sampled and mixed with 60 μL of methanol containing the internal standard. The mixture thus obtained was centrifuged at 15,000 G for 5 min and the supernatant was analyzed with HPLC under the conditions described below.
(3) Human plasma (pooled normal human plasma from George King Biomedical Systems, Inc.)
In the study for human plasma, the test compound was dissolved in TBS. TBS (tris-buffered saline, Sigma) contains 0.05 M Tris, 0.0027 M potassium chloride, and 0.138 M sodium chloride. pH 7.5 at 37° C.
(§2) The HPLC analysis was carried out under the following conditions.

[2] = Stability / hydrolysis in MT-2 cell extract; assay type: in vitro ADME
Procedure: as §1
(2) MT-2 cell extract was prepared from MT-2 cells according to the published procedure [A. Pompon, I. Lefebvre, J.-L. Imbach, S. Kahn, and D. Farquhar, “Antiviral Chemistry & Chemotherapy”, 5:91-98 (1994)] except for using HEPES buffer described below as the medium.
In the study for MT-2 cell extracts, the test compound was dissolved in HEPES buffer. HEPES buffer contains 0.010 M HEPES, 0.05 M potassium chloride, 0.005 M magnesium chloride, and 0.005 M dl-dithiothreitol. pH 7.4 at 37° C.
as §2

[3] = system: PLCE (porcine liver carboxyesterase); experiment: in vitro; assay type: in vitro ADME
Procedure: as §1
(1) PLCE (porcine liver carboxyesterase from Sigma, 160 u/mg protein, 21 mg protein/mL) diluted 20 fold with PBS (phosphated-buffered saline).
In the study for PLCE, the test compound was dissolved in PBS. PBS (phosphate-buffered saline, Sigma) contains 0.01 M phosphate, 0.0027 M potassium chloride, and 0.137 M sodium chloride. pH 7.4 at 37° C.
as §2

[4] = Incubation of radiolabeled PMPA prodrugs or PMPA in human whole blood; metabolites in plasma, PBMCs and RBCs; assay type: in vitro ADME; settings: for Metabolites (% of Total Peak Area): PMPA: human blood, 1 h
Procedure: After 1 hour, plasma, red blood cells (RBCs) and peripheral blood mononuclear cells (PBMCs) were isolated and analyzed by HPLC with radiometric detection.

[5] = Excretion and tissue distribution of radiolabelled prodrug in dogs; settings: for % Dose / Conc.: dogs, oral 10 mg-eq. PMPA/kg
Procedure: Plasma and peripheral blood mononuclear cells (PBMCs) were obtained over the 24-hr period. Urine and feces were cage collected over 24 hr. At 24 h after the dose, the animals were sacrificed and tissues removed for analysis. Total radioactivity in tissues was determined by oxidation and liquid scintillation counting.

With `CC(C)OC(=O)OCOP(=O)(CO[C@H](C)Cn1cnc2c(N)ncnc21)OCOC(=O)OC(C)C.O=C(O)/C=C/C(=O)O` [TDF, tenofovir disoproxil fumarate, reference compound] the “Human Plasma Stability (HP) product” value ([1]; 37° C., TBS pH 7.5) was “monoPOC PMPA”, the “Stability T 1/2 Human Plasma” value ([1]; human, plasma) was 0.41 min and the “Human Plasma Stability (HP) t1/2” value ([1]; human, plasma, pH 7.5) was 0.41. For the same compound, the “Stability T 1/2 MT-2 Cell Extract” value [2] was 70.7 min, the “MT-2 extract hydrolysis product” value ([2]; 37° C., HEPES buffer pH 7.4) was “monoPOC PMPA” and the “MT-2 extract hydrolysis rate t1/2” value ([2]; pH 7.4) was 70.7 min. The PLCE hydrolysis product ([3]; 37° C., PBS pH 7.4) was “MonoPOC PMPA”, the “PLCE hydrolysis rate t1/2” value ([3]; pH 7.4) was less than 0.14 min and the “Metabolites (% of Total Peak Area): PMPApp” value [4] was 18%. For the same compound, the “Metabolites (% of Total Peak Area): PMPA” value ([4]; PBMC) was 50%, the “Metabolites (% of Total Peak Area): PMPA” value ([4]; Plasma/FP) was 11% and the “Metabolites (% of Total Peak Area): PMPA” value ([4]; RBC/FP) was 93%. The “% Dose” value ([5]; Abdominal fat, 24 h) was 0.00%, the Conc. ([5]; Abdominal fat, 24 h) was 0.16 ug-eq/g and the “% Dose” value ([5]; Adrenal Gland, 24 h) was 0.00%. For the same compound, the Conc. ([5]; Adrenal Gland, 24 h) was 1.90 ug-eq/g, the “% Dose” value ([5]; Axillary Lymph Nodes, 24 h) was 0.00% and the Conc. ([5]; Axillary Lymph Nodes, 24 h) was 0.37 ug-eq/g. For the same compound, the “% Dose” value ([5]; Bile, 24 h) was 0.00%, the Conc. ([5]; Bile, 24 h) was 9.63 ug-eq/g and the “% Dose” value ([5]; Bone Marrow, 24 h) was 0.00%. The Conc. ([5]; Bone Marrow, 24 h) was 0.20 ug-eq/g, the “% Dose” value ([5]; Brain, 24 h) was 0.00% and the Conc. ([5]; Brain, 24 h) was “<LOD”. For the same compound, the “% Dose” value ([5]; Cerebrospinal Fluid, 24 h) was 0.00%, the Conc. ([5]; Cerebrospinal Fluid, 24 h) was “<LOD” and the “% Dose” value ([5]; Duodenum, 24 h) was 0.49%. The Conc. ([5]; Duodenum, 24 h) was 4.96 ug-eq/g, the “% Dose” value ([5]; Eye (L + R), 24 h) was 0.00% and the Conc. ([5]; Eye (L + R), 24 h) was 0.06 ug-eq/g. For the same compound, the “% Dose” value ([5]; Feces, collected over 24 hr) was 40.96%, the “% Dose” value ([5]; Femoral Bone, 24 h) was 0.00% and the Conc. ([5]; Femoral Bone, 24 h) was 0.08 ug-eq/g. The “% Dose” value ([5]; Gall bladder, 24 h) was 0.00%, the Conc. ([5]; Gall bladder, 24 h) was 3.58 ug-eq/g and the “% Dose” value ([5]; Heart, 24 h) was 0.03%. For the same compound, the Conc. ([5]; Heart, 24 h) was 0.46 ug-eq/g, the “% Dose” value ([5]; Ileum, 24 h) was 0.01% and the Conc. ([5]; Ileum, 24 h) was 0.50 ug-eq/g. For the same compound, the “% Dose” value ([5]; Iliac Lymph Nodes, 24 h) was 0.00%, the Conc. ([5]; Iliac Lymph Nodes, 24 h) was 0.51 ug-eq/g and the “% Dose” value ([5]; Inguinal Lymph Nodes, 24 h) was 0.00%. For the same compound, the Conc. ([5]; Inguinal Lymph Nodes, 24 h) was 0.28 ug-eq/g, the “% Dose” value ([5]; Jejunum, 24 h) was 1.34% and the Conc. ([5]; Jejunum, 24 h) was 3.01 ug-eq/g. The “% Dose” value ([5]; Kidney, 24 h) was 4.58%, the Conc. ([5]; Kidney, 24 h) was 87.90 ug-eq/g and the “% Dose” value ([5]; Large Intestine, 24 h) was 1.63%. The Conc. ([5]; Large Intestine, 24 h) was 5.97 ug-eq/g, the “% Dose” value ([5]; Liver, 24 h) was 12.40% and the Conc. ([5]; Liver, 24 h) was 38.30 ug-eq/g. For the same compound, the “% Dose” value ([5]; Lungs, 24 h) was 0.03%, the Conc. ([5]; Lungs, 24 h) was 0.53 ug-eq/g and the “% Dose” value ([5]; Mesenteric Lymph Nodes, 24 h) was 0.00%. For the same compound, the Conc. ([5]; Mesenteric Lymph Nodes, 24 h) was 1.20 ug-eq/g, the “% Dose” value ([5]; PBMC) was 0.00% and the “% Dose” value ([5]; Pancreas, 24 h) was 0.00%. The Conc. ([5]; Pancreas, 24 h) was 0.57 ug-eq/g, the “% Dose” value ([5]; Pituitary Gland, 24 h) was 0.00% and the Conc. ([5]; Pituitary Gland, 24 h) was 0.23 ug-eq/g. The Conc. ([5]; Plasma at 0.25 h) was 3.68 ug-eq/g, the “% Dose” value ([5]; Plasma at 24 h) was 0.00% and the Conc. ([5]; Plasma at 24 h) was 0.20 ug-eq/g. The “% Dose” value ([5]; Prostate, 24 h) was 0.00%, the Conc. ([5]; Prostate, 24 h) was 0.23 ug-eq/g and the “% Dose” value ([5]; Salivary Gland (L + R), 24 h) was 0.00%. The Conc. ([5]; Salivary Gland (L + R), 24 h) was 0.45 ug-eq/g, the “% Dose” value ([5]; Skeletal Muscle, 24 h) was 0.00% and the Conc. ([5]; Skeletal Muscle, 24 h) was 0.11 ug-eq/g. For the same compound, the “% Dose” value ([5]; Skin, 24 h) was 0.00%, the Conc. ([5]; Skin, 24 h) was 0.13 ug-eq/g and the “% Dose” value ([5]; Spinal Cord, 24 h) was 0.00%. For the same compound, the Conc. ([5]; Spinal Cord, 24 h) was “<LOD”, the “% Dose” value ([5]; Spleen, 24 h) was 0.00% and the Conc. ([5]; Spleen, 24 h) was 0.63 ug-eq/g. The “% Dose” value ([5]; Stomach, 24 h) was 0.11%, the Conc. ([5]; Stomach, 24 h) was 1.92 ug-eq/g and the “% Dose” value ([5]; Testes (L + R), 24 h) was 0.02%. For the same compound, the Conc. ([5]; Testes (L + R), 24 h) was 1.95 ug-eq/g, the “% Dose” value ([5]; Thyroid Gland, 24 h) was 0.00% and the Conc. ([5]; Thyroid Gland, 24 h) was 0.30 ug-eq/g. The “% Dose” value ([5]; Total GI Tract Contents, 24 h) was 5.61%, the “% Dose” value ([5]; Total Recovery, 24 h) was 81.10% and the “% Dose” value ([5]; Urine, collected over 24 hr) was 23.72%. For the same compound, the “% Dose” value ([5]; Whole Blood, 24 h) was 0.00%, the Conc. ([5]; Whole Blood, 24 h) was 0.85 ug-eq/g and the “main species observed in plasma” value ([5]; dog, in vivo, po) was “the parent drug”. The “prodrug concentration in the plasma” value ([5]; dog, in vivo, po) was “below the level of assay detection” and the CC50 (MT-2 cells) was 70 µM.
